{"source": "patent US9090874B2", "about": "“Olfactory epithelial-derived stem cells and methods of use therefor” (University of Louisville Research Foundation, Inc., priority 2008, dated 2015)", "test_system": "neurosphere subcultures", "assay": "Exposure of neurosphere subcultures to dibutyryl cAMP", "type": "cell-based", "conditions": "media containing 2.5 mM dibutyryl cAMP"}
{"smiles": "CCCC(=O)Nc1ncnc2c1ncn2[C@@H]1O[C@@H]2COP(=O)(O)O[C@H]2[C@H]1OC(=O)CCC", "note": "[dibutyryl cAMP]", "values": [{"measurement": "levels of α-internexin", "value": "increases"}, {"measurement": "mitotic activity", "value": "drastically decreases"}]}
